Assay results from US7888042B2, “Methods for identifying insulin mimetics” (Ohio University, priority 2005, dated 2011).
Values joined by “and” are separate entries in the source; they are usually repeats but may differ in a detail not shown here. Identical values can stand only once.

What was measured:
ob/ob mice [1] = experiment: Blood glucose in ob/ob mice, ip injection; type: in vivo; conditions: ip 20 mg/kg on day 0 and day 4, P<0.001
Protocol: (§1) Either 6-8 week old male db/db mice or 8-12 week old male ob/ob mice were treated with aqueous solutions of α-PGG by either oral delivery (˜10 μL, A & B) or ip injection (˜50 μL, C, & D). (n=8-10, mean±SD, one-way ANOVA). α-PGG (●); vehicle (∘). α-PGG (20 mg/kg) was orally delivered without glucose to fasting db/db mice (A *, P<0.02; **, P<0.01; ***, P<0.001) or with glucose (0.4 g/kg body weight) to fasting ob/ob mice (B, glucose tolerance test). α-PGG (20 mg/kg) was ip injected into ob/ob mice on day 0 and day 4 (C). A single ip injection (20 mg/kg) of α-PGG was administered to ob/ob mice (D). Glucose (A, B, C) or insulin (D) was determined from sera or plasma isolated from tail vein blood. Animal studies. Genetically diabetic db/db mice or obese ob/ob mice were purchased from Jackson Lab. Male mice of 2-3 months of age were used. Unless otherwise stated, 10 mice (N=10) were used per group. α-PGG was either orally administered or intraperitoneally (ip) injected in the form of an aqueous solution at 20 mg/kg body weight with a 1-cc sterile plastic syringe. At different times after the α-PGG administration, blood or plasma was collected from the tail vein for measurement of glucose and insulin concentrations using commercial kits. Vehicle (aqueous solution) treated mice were used as controls and were statistically compared with the α-PGG treated mice. […]

[2] = target: T1, IR isolated from CHO-IR cells (Homo sapiens, UniProt P06213); experiment: 125I-insulin saturation binding to IR in WGA-coated wells; conditions: 30 μM or 50 μM α-PGG
T1 construct: expressed in transfected cells; host or cells: CHO-IR cells (from Dr. Alan Saltiel's lab)
T1 sequence (P06213 28-758 limits assumed): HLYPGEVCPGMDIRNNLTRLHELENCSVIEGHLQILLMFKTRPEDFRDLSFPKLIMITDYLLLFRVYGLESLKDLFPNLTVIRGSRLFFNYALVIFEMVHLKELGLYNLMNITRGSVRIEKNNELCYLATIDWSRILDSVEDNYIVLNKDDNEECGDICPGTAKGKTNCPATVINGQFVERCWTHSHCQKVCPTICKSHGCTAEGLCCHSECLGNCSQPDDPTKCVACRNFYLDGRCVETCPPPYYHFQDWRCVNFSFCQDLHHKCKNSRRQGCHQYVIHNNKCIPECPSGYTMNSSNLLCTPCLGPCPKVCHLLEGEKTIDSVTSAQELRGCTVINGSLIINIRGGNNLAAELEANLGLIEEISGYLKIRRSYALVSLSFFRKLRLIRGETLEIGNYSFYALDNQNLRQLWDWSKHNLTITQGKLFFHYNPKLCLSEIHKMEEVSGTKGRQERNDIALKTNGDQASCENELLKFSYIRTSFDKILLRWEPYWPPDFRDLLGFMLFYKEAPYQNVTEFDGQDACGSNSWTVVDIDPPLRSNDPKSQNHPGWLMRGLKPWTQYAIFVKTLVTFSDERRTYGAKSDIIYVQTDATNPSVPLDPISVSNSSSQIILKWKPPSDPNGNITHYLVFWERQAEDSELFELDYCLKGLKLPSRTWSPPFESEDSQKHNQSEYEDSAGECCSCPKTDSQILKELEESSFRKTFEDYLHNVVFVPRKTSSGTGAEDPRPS
T1 sequence (P06213 763-1382 partner limits assumed): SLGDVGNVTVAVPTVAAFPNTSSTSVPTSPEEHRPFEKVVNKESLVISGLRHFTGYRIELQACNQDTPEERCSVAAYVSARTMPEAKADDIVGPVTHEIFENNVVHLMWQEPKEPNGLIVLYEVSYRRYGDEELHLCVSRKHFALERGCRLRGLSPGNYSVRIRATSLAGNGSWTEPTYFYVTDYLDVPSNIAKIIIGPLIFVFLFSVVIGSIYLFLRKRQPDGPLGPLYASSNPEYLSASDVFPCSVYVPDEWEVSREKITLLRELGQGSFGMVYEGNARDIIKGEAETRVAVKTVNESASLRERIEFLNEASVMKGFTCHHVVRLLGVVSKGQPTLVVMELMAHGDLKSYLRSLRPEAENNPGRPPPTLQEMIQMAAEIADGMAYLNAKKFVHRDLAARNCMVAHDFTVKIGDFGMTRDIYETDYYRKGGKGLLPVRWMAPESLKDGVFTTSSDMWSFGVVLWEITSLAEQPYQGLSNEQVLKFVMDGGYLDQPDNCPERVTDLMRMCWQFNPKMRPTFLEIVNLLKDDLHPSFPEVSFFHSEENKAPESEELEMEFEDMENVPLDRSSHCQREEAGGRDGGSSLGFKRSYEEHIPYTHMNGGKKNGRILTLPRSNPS
Protocol: (§2) (A) α-PGG binds to IR as measured by a SPR (28). Increasing concentrations of α-PGG was injected into the system to interact with the pure IR attached to the gold surface of the biosensor chip. The binding, represented in arbitrary response units, was automatically plotted against α-PGG concentrations to generate the binding curve. (B) Insulin binding to IR in the absence or presence of α-PGG. Increasing amounts of ^125I-labeled insulin were added to WGA-coated wells containing pre-bound IR isolated from CHO-IR cells in the absence of α-PGG or in the presence of 30 μM or 50 μM of α-PGG. After overnight incubation, removal of excessive ligands, and washing, the bound radioactive insulin was measured. (C) Insulin displacement by α-PGG. Fixed amounts of radioactive insulin (1 nM) were added to each of the WGA-coated wells pre-bound with IR. Increasing amounts of α-PGG were added to the wells to displace the ^125I-labeled insulin. […]
(§3) Insulin receptor binding studies. […] After sensograms of α-PGG-IR binding at different concentrations were recorded, the binding affinity was analyzed using BIAevaluation software. […] The bound ligand was detached (eluted) from the receptor with 2×200 μL 0.2M Glycine pH 2.8, and measured for its radioactivity using a Beckman Coulter LS 6400 Multi-Purpose Scintillation Counter. […] The receptor binding results were analyzed with the software GraphPad Prism.

[3] = target: T1, IR isolated from CHO-IR cells; experiment: 125I-insulin displacement assay in WGA-coated wells; type: binding; conditions: 1 nM 125I-labeled insulin; read-out: IC50 for displacement of IR-bound radioactive insulin
Protocol: as §2, §3

[4] = target: T2, pure recombinant glycosylated IR (Homo sapiens, UniProt P06213); experiment: Surface plasmon resonance binding to IR; conditions: SPR, IR bound to NTA chip; read-out: apparent binding affinity (Kd) to IR
T2 construct: purchased R&D Systems, Inc
T2 sequence (P06213 28-746 isoform P06213-2 limits assumed): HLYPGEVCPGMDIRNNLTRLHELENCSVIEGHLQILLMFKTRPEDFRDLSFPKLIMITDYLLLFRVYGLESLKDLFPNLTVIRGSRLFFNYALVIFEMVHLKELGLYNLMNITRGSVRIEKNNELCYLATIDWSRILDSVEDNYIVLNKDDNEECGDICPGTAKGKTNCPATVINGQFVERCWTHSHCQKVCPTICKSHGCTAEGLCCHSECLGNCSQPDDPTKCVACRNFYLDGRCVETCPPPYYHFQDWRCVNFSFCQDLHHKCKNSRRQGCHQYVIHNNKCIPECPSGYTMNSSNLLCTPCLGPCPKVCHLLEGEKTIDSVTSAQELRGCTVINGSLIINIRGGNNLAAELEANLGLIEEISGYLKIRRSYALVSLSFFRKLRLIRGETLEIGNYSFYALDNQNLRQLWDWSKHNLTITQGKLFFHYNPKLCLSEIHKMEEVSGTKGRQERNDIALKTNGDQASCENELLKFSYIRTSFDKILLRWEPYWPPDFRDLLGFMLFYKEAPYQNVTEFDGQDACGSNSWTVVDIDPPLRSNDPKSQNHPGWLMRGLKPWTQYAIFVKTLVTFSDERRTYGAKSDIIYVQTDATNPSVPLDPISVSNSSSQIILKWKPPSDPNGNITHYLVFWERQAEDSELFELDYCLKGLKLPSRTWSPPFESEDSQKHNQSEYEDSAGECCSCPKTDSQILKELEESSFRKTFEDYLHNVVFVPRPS
T2 sequence (P06213 763-956 limits assumed): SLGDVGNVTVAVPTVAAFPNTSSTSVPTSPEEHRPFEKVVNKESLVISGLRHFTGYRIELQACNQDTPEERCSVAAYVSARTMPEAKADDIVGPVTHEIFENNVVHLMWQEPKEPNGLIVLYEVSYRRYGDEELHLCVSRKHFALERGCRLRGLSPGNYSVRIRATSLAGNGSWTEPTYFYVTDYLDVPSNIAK
Protocol: as §2, §3

db/db mice = experiment: Blood glucose in fasting db/db mice, oral dose; type: in vivo
Protocol: Either 6-8 week old male db/db mice or 8-12 week old male ob/ob mice were treated with aqueous solutions of α-PGG by either oral delivery (˜10 μL, A & B) or ip injection (˜50 μL, C, & D). (n=8-10, mean±SD, one-way ANOVA). α-PGG (●); vehicle (∘). α-PGG (20 mg/kg) was orally delivered without glucose to fasting db/db mice (A *, P<0.02; **, P<0.01; ***, P<0.001) or with glucose (0.4 g/kg body weight) to fasting ob/ob mice (B, glucose tolerance test). α-PGG (20 mg/kg) was ip injected into ob/ob mice on day 0 and day 4 (C). A single ip injection (20 mg/kg) of α-PGG was administered to ob/ob mice (D). Glucose (A, B, C) or insulin (D) was determined from sera or plasma isolated from tail vein blood. Animal studies. Genetically diabetic db/db mice or obese ob/ob mice were purchased from Jackson Lab. Male mice of 2-3 months of age were used. Unless otherwise stated, 10 mice (N=10) were used per group. α-PGG was either orally administered or intraperitoneally (ip) injected in the form of an aqueous solution at 20 mg/kg body weight with a 1-cc sterile plastic syringe. At different times after the α-PGG administration, blood or plasma was collected from the tail vein for measurement of glucose and insulin concentrations using commercial kits. Vehicle (aqueous solution) treated mice were used as controls and were statistically compared with the α-PGG treated mice. All animal studies were conducted in accord with the Ohio University guidelines for the use and care of laboratory animals.

α-subunit of IR = target: T3, α-subunit of IR (Mus musculus, UniProt P15208); experiment: Cross-linking with Sulfo-SANPAH and Western blot with anti-IR α-subunit antibody; type: cell-based; conditions: adipocytes, 200 μM, Sulfo-SANPAH, UV
T3 construct: endogenous in cells; host or cells: 3T3-L1 adipocytes (ATCC)
T3 sequence (P15208 28-748 limits assumed): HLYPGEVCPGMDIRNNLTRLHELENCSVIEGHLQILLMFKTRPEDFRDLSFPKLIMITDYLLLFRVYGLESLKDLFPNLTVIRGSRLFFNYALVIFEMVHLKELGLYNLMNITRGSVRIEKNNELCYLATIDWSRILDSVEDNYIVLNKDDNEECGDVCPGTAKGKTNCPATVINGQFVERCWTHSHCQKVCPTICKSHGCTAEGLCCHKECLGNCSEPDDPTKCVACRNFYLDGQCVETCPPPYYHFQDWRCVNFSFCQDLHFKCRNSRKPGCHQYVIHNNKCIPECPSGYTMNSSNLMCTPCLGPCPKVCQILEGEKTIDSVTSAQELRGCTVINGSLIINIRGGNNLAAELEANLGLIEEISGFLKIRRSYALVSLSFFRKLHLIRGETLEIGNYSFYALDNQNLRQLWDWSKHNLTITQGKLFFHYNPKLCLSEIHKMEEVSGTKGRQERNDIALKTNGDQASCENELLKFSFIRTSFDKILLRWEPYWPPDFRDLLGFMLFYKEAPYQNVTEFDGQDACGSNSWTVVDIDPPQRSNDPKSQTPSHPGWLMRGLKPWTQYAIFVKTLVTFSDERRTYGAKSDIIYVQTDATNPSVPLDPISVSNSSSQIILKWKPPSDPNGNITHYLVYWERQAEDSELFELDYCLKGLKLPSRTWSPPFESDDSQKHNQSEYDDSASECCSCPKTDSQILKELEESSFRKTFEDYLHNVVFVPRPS
T3 sequence (P15208 753-1372 partner limits assumed): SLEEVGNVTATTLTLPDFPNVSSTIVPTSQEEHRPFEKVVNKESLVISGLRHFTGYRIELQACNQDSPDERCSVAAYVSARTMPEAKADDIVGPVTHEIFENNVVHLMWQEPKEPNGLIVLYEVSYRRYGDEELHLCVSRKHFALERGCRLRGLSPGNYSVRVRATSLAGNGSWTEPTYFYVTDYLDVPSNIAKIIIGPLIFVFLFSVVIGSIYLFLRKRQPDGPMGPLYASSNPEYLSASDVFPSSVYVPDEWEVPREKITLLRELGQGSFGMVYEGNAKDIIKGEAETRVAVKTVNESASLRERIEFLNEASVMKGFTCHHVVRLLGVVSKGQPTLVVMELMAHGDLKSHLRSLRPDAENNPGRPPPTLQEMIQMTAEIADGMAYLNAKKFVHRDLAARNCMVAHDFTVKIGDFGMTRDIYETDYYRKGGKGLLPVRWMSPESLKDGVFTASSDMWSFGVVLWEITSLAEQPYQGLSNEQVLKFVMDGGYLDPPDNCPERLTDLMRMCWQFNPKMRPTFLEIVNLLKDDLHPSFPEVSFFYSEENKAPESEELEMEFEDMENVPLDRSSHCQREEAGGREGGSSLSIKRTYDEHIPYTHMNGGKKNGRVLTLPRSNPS
Protocol: as §2
For the cross-linking reaction, sulfosuccinimidyl-6-(4′-azido-2′-nitrophenylamino) hexanoate (Sulfo-SANPAH), a photoactive, non-cleavable cross-linker (31, 32) purchased from Pierce was used to cross link β-PGG to plasma membrane proteins that it interacts with. […] Cells were lysed and the total cell protein was isolated and separated on an 8% reducing SDS-PAGE, transferred to a nylon membrane, and analyzed with an anti-IR α-subunit antibody.

ob/ob mice [5] = experiment: Plasma insulin in ob/ob mice, ip injection; type: in vivo; conditions: single ip injection 20 mg/kg
Protocol: as §1

maximal binding (Bmax) for insulin [2]: reduced in a dose-dependent manner
IC50 [3]: 10 ± 1 µM
Kd [4]: 43 µM and ~43 µM
gel migration of IR α-subunit after cross-linking (α-subunit of IR): Gel retardation of α-subunit of IR
Structure (SMILES): O=C(OC[C@H]1O[C@H](OC(=O)c2cc(O)c(O)c(O)c2)[C@H](OC(=O)c2cc(O)c(O)c(O)c2)[C@@H](OC(=O)c2cc(O)c(O)c(O)c2)[C@@H]1OC(=O)c1cc(O)c(O)c(O)c1)c1cc(O)c(O)c(O)c1 [α-PGG, alpha 1,2,3,4,6-penta-O-galloyl-D-Glucopyranose]
blood glucose levels (ob/ob mice [1]): significantly and consistently lowered
duration of blood glucose difference (db/db mice; oral 20 mg/kg): at least 5 hours
glucose level lower than control group (db/db mice; oral 20 mg/kg, 4 to 6 hours after treatment): about 20%
blood glucose levels (db/db mice; single oral dose 20 mg/kg): significantly decreased
plasma insulin levels (ob/ob mice [5]; hyperinsulinemic ob/ob mice): significantly lower
duration of anti-hyperinsulinemic effects (ob/ob mice [5]; ob/ob mice): at least 24 hours
